Data from patent publication US20160151505A1 (KONINKLIJKE PHILIPS N.V., priority 2011, published 2016).
Like-named read-outs stand apart in the source and are kept apart here. Marks after values point to notes of the source that are not given here. Values belong to the compound of their own block, whether it stands above or below them.

Tests used:
[1] = Hydrolytic stability tests of tetrazines; format: physicochemical
Excerpt: This solution was filtered and, the decrease of the absorption band at 525 nm was monitored using UV spectroscopy.

[2] = Reactivity of tetrazines towards trans-cyclooct-4-ene-1-ol (competition experiment); conditions: reference tetrazine 5; reaction with trans-cyclooct-4-ene-1-ol (axial isomer)
Description: A competition experiment was performed to determine the reactivity ratio of a specific tetrazine and 3-(5-acetamido-2-pyridyl)-6-(2-pyridyl)-1,2,4,5-tetrazine (that was chosen as the reference tetrazine), in the inverse-electron demand Diels-Alder reaction with trans-cyclooct-4-ene-1-ol (“minor” isomer with OH in axial position, see: Whitham et al. J. Chem. Soc. (C), 1971, 883-896)).
To acetonitrile (0.100 mL) was added 5 μL of a solution of the specific tetrazine in DMSO (25 mM) and 5 μL of a solution of the reference tetrazine in DMSO (25 mM). This mixture was diluted with water (0.9 mL), and the absolute amounts of both tetrazines were determined by HPLC-MS/PDA analysis. Subsequently, a solution of trans-cyclooct-4-ene-1-ol (axial isomer) in DMSO (25 μL 2.5 mM) was slowly added, and the mixture was stirred for 5 min. Again, the absolute amounts of both tetrazines were determined by HPLC-MS/PDA analysis, and conversions for both tetrazines was calculated. From these conversions, the reactivity ratio (R=k2,TCO/k2,Ref) of both tetrazines was calculated using the mathematical procedure from Ingold and Shaw (J. Chem. Soc., 1927, 2918-2926).

[3] = Stability of trans-cyclooctene derivatives in PBS; conditions: PBS buffer
Description: (§1) 10 μL of a solution of the specific trans-cyclooctene derivative in dioxane (25 mM) was diluted with PBS buffer (3 mL), and this solution was stored at 20° C. in the dark.
(§2) The fate of the TCO compound was monitored by HPLC-MS analysis, and an estimation of the half-life time was made based on the release of the model prodrug.

[4] = test system: A431 squamous carcinoma cells; experiment: Cell proliferation assay (MTT); format: cell-based; conditions: Homo sapiens
physchem = conditions: buffer
Description: as §1, §2

[5] = Activation of doxorubicin prodrugs (release of doxorubicin); conditions: after 1 hr at 20° C.
Description: […] Next, […](E)-cyclooctene-doxorubicin conjugate (64, 2.67×10^−5 g; 2.50×10^−8 mol) was added.
[…] Next, (E)-cyclooctene-doxorubicin conjugate (68, 2.67×10^−5 g; 2.50×10^−8 mol) was added.

[6] = Second-order rate constant determination of trans-cyclooctene derivatives with tetrazine; conditions: UV-visible spectroscopy in acetonitrile at 20° C.
Description: The kinetics of the inverse-electron demand Diels-Alder reaction of a trans-cyclooctene derivative with 3-(5-acetamido-2-pyridyl)-6-(2-pyridyl)-1,2,4,5-tetrazine, performed in acetonitrile at 20° C., was determined using UV-visible spectroscopy. A cuvette was filled with acetonitrile (3 mL) and equilibrated at 20° C. 3-(5-Acetamido-2-pyridyl)-6-(2-pyridyl)-1,2,4,5-tetrazine (2.50×10^−7 mol) was added, followed by the trans-cyclooctene derivative (2.50×10^−7 mol). The decay of the absorption at λ=540 nm was monitored, and from this curve the second-order rate constant, k2, was determined assuming second order rate kinetics.

[7] = Reactivity of trans-cyclooctene derivatives: competition experiment; conditions: reference trans-cyclooct-4-ene-1-ol (axial isomer)
Description: A competition experiment was performed to determine the reactivity ratio of a specific trans-cyclooctene derivative and trans-cyclooct-4-ene-1-ol (axial isomer) (that was chosen as the reference), in the inverse-electron demand Diels-Alder reaction with bis(2-pyridyl)-1,2,4,5-tetrazine.
This mixture was diluted with water (0.45 mL). Subsequently, a solution of bis(2-pyridyl)-1,2,4,5-tetrazine (6.25×10^−8 mol) in a mixture of acetonitrile (0.05 mL) and water (0.45 mL) was slowly added while stirring vigorously. After addition, the mixture was stirred for an additional 5 min. The conversion of both trans-cyclooctene derivatives was determined by HPLC-MS/PDA analysis, and from these conversions, the reactivity ratio (R=k2,TCO/k2,Ref) of the specific trans-cyclooctene derivative was calculated using the mathematical procedure from Ingold and Shaw (J. Chem. Soc., 1927, 2918-2926).

[8] = Reactivity of tetrazines towards trans-cyclooct-4-ene-1-ol (competition experiment); conditions: values marked *: 50:50 mixture of PBS and acetonitrile; reference tetrazine 5
[9] = stability in PBS at 20° C. t1/2, PBS, 20° C.
[10] = stability in PBS t1/2, PBS, 37° C.
[11] = values marked *: 50:50 mixture of PBS and acetonitrile

half-life at 83 µM ([1]; PBS buffer, PBS, 20° C.): 300 h
Compound: CCCC(=O)Nc1ccc(-c2nnc(C)nn2)nc1
Reactivity ratio (R = k2,TZ/k2,Ref) [2]: 0.18

Compound: COc1ccccc1OC(=O)NC1CC/C=C/CCC1N (stereo not drawn) [compound 41]
half-life at 83 µM [3]: 21 h

Compound: COc1cccc2c1C(=O)c1c(O)c3c(c(O)c1C2=O)C[C@@](O)(C(=O)CO)C[C@@H]3OC1CC(NC(=O)OCc2ccc(CC(=O)NC3CC/C=C/CCC3N)cc2)[C@H](O)C(C)O1 (stereo partly drawn) [compound 64, (E)-cyclooctene-doxorubicin conjugate]
IC50 ([4]; A-431, 6 h, A431 cell line, 6 h incubation at 37° C. followed by medium replacement): 128 ± 17 nM
IC50 ([4]; A-431, 6 h, A431 cell line, in combination with tetrazine 29 (10 μM), 6 h incubation at 37° C. followed by medium replacement): 49 ± 4 nM
IC50 ([4]; A-431, A431 cells, combination of the prodrug 64 and tetrazine 29): 49 ± 4 nM
IC50 ([4]; A-431, A431 cells, prodrug alone): 128 nM
half-life (physchem; [9]): 24 h
half-life (physchem; [10]): 3.6 h
doxorubicin released ([5]; with 3,6-Diphenyl-1,2,4,5-tetrazine): 48%
doxorubicin released ([5]; with 3-(5-Acetamido-2-pyridyl)-6-(2-pyridyl)-1,2,4,5-tetrazine (5)): 30%
doxorubicin released ([5]; with 3-(5-Butyramido-2-pyridyl)-6-(2-pyrimidyl)-1,2,4,5-tetrazine): 20%
doxorubicin released ([5]; with 3-Methyl-6-(2-pyridyl)-1,2,4,5-tetrazine (7)): 52%
doxorubicin released ([5]; with 4-(1,2,4,5-Tetrazin-3-yl)phenylmethanamine): 50%

half-life at 83 µM ([1]; PBS buffer, PBS, 20° C.): 183 h
Compound: NCc1ccc(-c2nncnn2)cc1
Reactivity ratio (R = k2,TZ/k2,Ref) [2]: 0.77

Compound: O=C(Oc1ccccc1)N1C/C=C/CNCC1 [compound 61, (E)-phenyl 2,3,4,5-tetrahydro-1,4-diazocine-1(8H)-carboxylate]
half-life at 83 µM [3]: > 480 h
rate contant* k2 [6]: 47 M⁻¹ s⁻¹

Compound: Cc1ccccc1OC(=O)NC1CC/C=C/CCC1N (stereo not drawn) [compound 39]
half-life at 83 µM [3]: 192 h

half-life at 83 µM ([1]; PBS buffer, PBS, 20° C.): 2.4 h
Compound: c1cc(-c2nnc(-c3ccncc3)nn2)ccn1
Reactivity ratio (R = k2,TZ/k2,Ref) [2]: 0.83

half-life at 83 µM ([1]; PBS buffer, PBS, 20° C.): > 150 h
Compound: c1cncc(-c2nnc(-c3cccnc3)nn2)c1
Reactivity ratio (R = k2,TZ/k2,Ref) [2]: 0.19

half-life at 83 µM [1, 11]: > 300 h
Compound: c1cc(-c2nnc(-c3ccsc3)nn2)cs1

half-life at 83 µM ([1]; PBS buffer, PBS, 20° C.): 115 h
Compound: Fc1ccc(-c2nnc(-c3ccc(F)cn3)nn2)nc1

half-life at 83 µM ([1]; PBS buffer, PBS, 20° C.): 340 h
Compound: Nc1ccc(-c2nnc(-c3ccccn3)nn2)nc1
Reactivity ratio (R = k2,TZ/k2,Ref) [2]: 0.4

half-life at 83 µM [3]: > 72 h
Compound: OC1CC/C=C/CCC1 (stereo not drawn) [axial isomer, trans-cyclooct-4-ene-1-ol, reference compound]
reactivity ratio** (R = k2,TCO/k2,Ref) [7]: 1

half-life at 83 µM [3]: > 480 h
Compound: NC1CC/C=C/CCC1NC(=O)Nc1ccccc1 (stereo not drawn) [47 major, cis phenyl((E)-8-aminocyclooct-4-en-1-yl)urea]

IC50 ([4]; A-431, A431 cell line, 6 h incubation at 37° C. followed by medium replacement, read-out: IC50): 38 ± 3 nM
Compound: COc1cccc2c1C(=O)c1c(O)c3c(c(O)c1C2=O)C[C@@](O)(C(=O)CO)C[C@@H]3O[C@H]1C[C@H](N)[C@H](O)[C@H](C)O1 [Dox, Doxorubicin, reference compound]

half-life at 83 µM [1, 11]: 35 h
Compound: CCCC(=O)Nc1ccc(-c2nnc(-c3ccc(C(F)(F)F)cn3)nn2)nc1

half-life at 83 µM [1, 11]: > 300 h
Compound: Nc1ccccc1-c1nnc(-c2ccccc2N)nn1 [compound 9, 3,6-bis(2-aminophenyl)-1,2,4,5-tetrazine]
Reactivity ratio (R = k2,TZ/k2,Ref) [8]: <0 .01*

half-life at 83 µM ([1]; PBS buffer, PBS, 20° C.): 80 h
Compound: CC(=O)Nc1ccc(-c2nnc(-c3ccccn3)nn2)nc1 [compound 5, 3-(5-acetamido-2-pyridyl)-6-(2-pyridyl)-1,2,4,5-tetrazine]
Reactivity ratio (R = k2,TZ/k2,Ref) [2]: 1

Compound: N[C@H]1CC/C=C/CC[C@H]1NC(=O)Oc1ccccc1 (relative stereo) [compound 36, cis-(E)-phenyl(8-aminocyclooct-4-en-1-yl)carbamate]
half-life at 83 µM [3]: 27 h
rate contant* k2 [6]: 240 M⁻¹ s⁻¹

Compound: c1c[nH]c(-c2nnc(-c3ncc[nH]3)nn2)n1
Reactivity ratio (R = k2,TZ/k2,Ref) [2]: 1.2

Compound: COc1cccc2c1C(=O)c1c(O)c3c(c(O)c1C2=O)C[C@@](O)(C(=O)CO)C[C@@H]3OC1CC(NC(=O)OCc2cc(C)c(CC(=O)NC3CC/C=C/CCC3N)c(C)c2)[C@H](O)C(C)O1 (stereo partly drawn) [compound 68, (E)-cyclooctene-doxorubicin conjugate]
half-life (physchem; [9]): 624 h
half-life (physchem; [10]): 149 h

half-life at 83 µM [1, 11]: > 300 h
Compound: Nc1cccc(-c2nnc(-c3ccccc3)nn2)c1

half-life at 83 µM [3]: > 240 h
Compound: COc1cc(COC(=O)NC2CC/C=C/CCC2N)cc(OC)c1OC (stereo not drawn) [compound 37, cis-(E)-3,4,5-trimethoxybenzyl(8-aminocyclooct-4-en-1-yl)carbamate]
rate contant* k2 [6]: 300 M⁻¹ s⁻¹

half-life at 83 µM ([1]; PBS buffer, PBS, 20° C.): 24 h
Compound: O=C1CCCC(=O)N1c1ccc(-c2nnc(-c3ccccn3)nn2)nc1
Reactivity ratio (R = k2,TZ/k2,Ref) [2]: 1.6

half-life at 83 µM ([1]; PBS buffer, PBS, 20° C.): 44 h
Compound: c1ccc(-c2nnc(-c3ccccn3)nn2)nc1 [compound 2, 3,6-bis(2-pyridyl)-1,2,4,5-tetrazine]

half-life at 83 µM [1, 11]: > 300 h
Compound: c1ccc(-c2nnc(-c3ccccc3)nn2)cc1

half-life at 83 µM ([1]; PBS buffer, PBS, 20° C.): 0.42 h
Compound: CCCNC(=O)c1ccc(-c2nnc(-c3ncccn3)nn2)nc1
Reactivity ratio (R = k2,TZ/k2,Ref) [2]: 2

half-life at 83 µM ([1]; PBS buffer, PBS, 20° C.): 0.68 h
Compound: c1cnc(-c2nnc(-c3cnccn3)nn2)cn1
Reactivity ratio (R = k2,TZ/k2,Ref) [2]: 1.5

half-life at 83 µM [1, 11]: > 300 h
Compound: Nc1ccc(-c2nnc(-c3ccccc3)nn2)cc1

half-life at 83 µM ([1]; PBS buffer, PBS, 20° C.): 10.3 h
Compound: CCCC(=O)Nc1ccc(-c2nncnn2)nc1
Reactivity ratio (R = k2,TZ/k2,Ref) [2]: 2.8

half-life at 83 µM [1, 11]: > 300 h
Compound: Nc1ccc(-c2nnc(-c3ccc(N)cc3)nn2)cc1 [compound 13, 3,6-bis(4-aminophenyl)-1,2,4,5-tetrazine]

half-life at 83 µM ([1]; PBS buffer, PBS, 20° C.): 4 h
Compound: CCCNC(=O)c1ccc(-c2nnc(-c3ccccn3)nn2)nc1

half-life at 83 µM [1, 11]: > 300 h
Compound: Oc1ccc(-c2nnc(-c3ccc(O)cc3)nn2)cc1 [compound 11, 3,6-bis(4-hydroxyphenyl)-1,2,4,5-tetrazine]

half-life at 83 µM ([1]; PBS buffer, PBS, 20° C.): 2.7 h
Compound: c1ccc(-c2nncnn2)nc1

Compound: NC1/C=C/CCCCC1NC(=O)Oc1ccccc1 (stereo not drawn) [compound 56, trans phenyl(E)-2-aminocyclooct-3-en-1-yl carbamate]
half-life at 83 µM [3]: 120 h

half-life at 83 µM ([1]; PBS buffer, PBS, 20° C.): 16 h
Compound: NCc1nnc(CN)nn1 [compound 20, 3,6-bis(aminomethyl)-1,2,4,5-tetrazine]

half-life at 83 µM [1, 11]: 3.6 h
Compound: FC(F)(F)c1ccc(-c2nnc(-c3ccc(C(F)(F)F)cn3)nn2)nc1

half-life at 83 µM ([1]; PBS buffer, PBS, 20° C.): 230 h
Compound: Cc1nnc(-c2ccccn2)nn1 [compound 7, 3-(2-pyridyl)-6-methyl-1,2,4,5-tetrazine]
Reactivity ratio (R = k2,TZ/k2,Ref) [2]: 0.25

Compound: Cc1cccc(C)c1OC(=O)NC1CC/C=C/CCC1N (stereo not drawn) [compound 43]
half-life at 83 µM [3]: > 480 h

half-life at 83 µM [1, 11]: > 300 h
Compound: c1c[nH]c(-c2nnc(-c3ccc[nH]3)nn2)c1

half-life at 83 µM ([1]; PBS buffer, PBS, 20° C.): 3.2 h
Compound: CCCC(=O)Nc1ccc(-c2nnc(-c3ncccn3)nn2)nc1
Reactivity ratio (R = k2,TZ/k2,Ref) [2]: 2.7

half-life at 83 µM [1, 11]: > 300 h
Compound: c1csc(-c2nnc(-c3cccs3)nn2)c1

half-life at 83 µM ([1]; PBS buffer, PBS, 20° C.): 117 h
Compound: CCCC(=O)Nc1ccc(-c2nnc(-c3ccc(F)cn3)nn2)nc1
Reactivity ratio (R = k2,TZ/k2,Ref) [2]: 0.95

Compound: CC(C)(C)c1ccccc1OC(=O)NC1CC/C=C/CCC1N (stereo not drawn) [compound 45]
half-life at 83 µM [3]: > 480 h
